Assay results published in patent publication US20120245137A1 (Zalicus Pharmaceuticals Ltd., priority 2009, published 2012).
pIC50: −log10 of the molar value.

Columns and labels:
Type in all cases: cell-based
[1] = target: human α1G T-type channels (Homo sapiens, UniProt O43497); test: T-type calcium channel block, whole cell patch clamp, α1G; conditions: HEK cells stably expressing human α1G; mainly non-inactivated protocol; values above 10,000 nM represented as 10000
Summary of the method: (§1)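 Using standard patch-clamp, T-type currents were recorded from stably transfected human α1G or α1H HEK 293 cells. Separate non-inactivating and inactivation voltage protocols distinguished resting from voltage-dependent block by locally applied compound in 0.1-0.01% DMSO.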

[2] = target: N-type calcium channel subunits (α1B, α2δ, and β3a) (Homo sapiens, UniProt Q00975); test: Block of Cav2.2 channel, whole cell voltage clamp, manual and PatchXpress; conditions: Table 5; table follows Assay Example 3 (whole cell voltage clamp / PatchXpress); assay not given
Summary of the method: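 Percent block taken as current amplitude ratio with versus without compound, applied in rising doses; IC50 fitted where one cell received multiple doses. Protocol: 50 ms pulses to +20 mV at 0.067 Hz from […] or −90 mV holding; P/n leak subtraction, no junction-potential correction; manual and PatchXpress recordings.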

[3] = target: human α1H T-type channels (Homo sapiens, UniProt O95180); test: T-type calcium channel block, whole cell patch clamp, α1H; conditions: HEK cells stably expressing human α1H; mainly non-inactivated protocol; values above 10,000 nM represented as 10000
Summary of the method: as §1

Chain of N-type calcium channel subunits (α1B, α2δ, and β3a) (Q00975 whole entry): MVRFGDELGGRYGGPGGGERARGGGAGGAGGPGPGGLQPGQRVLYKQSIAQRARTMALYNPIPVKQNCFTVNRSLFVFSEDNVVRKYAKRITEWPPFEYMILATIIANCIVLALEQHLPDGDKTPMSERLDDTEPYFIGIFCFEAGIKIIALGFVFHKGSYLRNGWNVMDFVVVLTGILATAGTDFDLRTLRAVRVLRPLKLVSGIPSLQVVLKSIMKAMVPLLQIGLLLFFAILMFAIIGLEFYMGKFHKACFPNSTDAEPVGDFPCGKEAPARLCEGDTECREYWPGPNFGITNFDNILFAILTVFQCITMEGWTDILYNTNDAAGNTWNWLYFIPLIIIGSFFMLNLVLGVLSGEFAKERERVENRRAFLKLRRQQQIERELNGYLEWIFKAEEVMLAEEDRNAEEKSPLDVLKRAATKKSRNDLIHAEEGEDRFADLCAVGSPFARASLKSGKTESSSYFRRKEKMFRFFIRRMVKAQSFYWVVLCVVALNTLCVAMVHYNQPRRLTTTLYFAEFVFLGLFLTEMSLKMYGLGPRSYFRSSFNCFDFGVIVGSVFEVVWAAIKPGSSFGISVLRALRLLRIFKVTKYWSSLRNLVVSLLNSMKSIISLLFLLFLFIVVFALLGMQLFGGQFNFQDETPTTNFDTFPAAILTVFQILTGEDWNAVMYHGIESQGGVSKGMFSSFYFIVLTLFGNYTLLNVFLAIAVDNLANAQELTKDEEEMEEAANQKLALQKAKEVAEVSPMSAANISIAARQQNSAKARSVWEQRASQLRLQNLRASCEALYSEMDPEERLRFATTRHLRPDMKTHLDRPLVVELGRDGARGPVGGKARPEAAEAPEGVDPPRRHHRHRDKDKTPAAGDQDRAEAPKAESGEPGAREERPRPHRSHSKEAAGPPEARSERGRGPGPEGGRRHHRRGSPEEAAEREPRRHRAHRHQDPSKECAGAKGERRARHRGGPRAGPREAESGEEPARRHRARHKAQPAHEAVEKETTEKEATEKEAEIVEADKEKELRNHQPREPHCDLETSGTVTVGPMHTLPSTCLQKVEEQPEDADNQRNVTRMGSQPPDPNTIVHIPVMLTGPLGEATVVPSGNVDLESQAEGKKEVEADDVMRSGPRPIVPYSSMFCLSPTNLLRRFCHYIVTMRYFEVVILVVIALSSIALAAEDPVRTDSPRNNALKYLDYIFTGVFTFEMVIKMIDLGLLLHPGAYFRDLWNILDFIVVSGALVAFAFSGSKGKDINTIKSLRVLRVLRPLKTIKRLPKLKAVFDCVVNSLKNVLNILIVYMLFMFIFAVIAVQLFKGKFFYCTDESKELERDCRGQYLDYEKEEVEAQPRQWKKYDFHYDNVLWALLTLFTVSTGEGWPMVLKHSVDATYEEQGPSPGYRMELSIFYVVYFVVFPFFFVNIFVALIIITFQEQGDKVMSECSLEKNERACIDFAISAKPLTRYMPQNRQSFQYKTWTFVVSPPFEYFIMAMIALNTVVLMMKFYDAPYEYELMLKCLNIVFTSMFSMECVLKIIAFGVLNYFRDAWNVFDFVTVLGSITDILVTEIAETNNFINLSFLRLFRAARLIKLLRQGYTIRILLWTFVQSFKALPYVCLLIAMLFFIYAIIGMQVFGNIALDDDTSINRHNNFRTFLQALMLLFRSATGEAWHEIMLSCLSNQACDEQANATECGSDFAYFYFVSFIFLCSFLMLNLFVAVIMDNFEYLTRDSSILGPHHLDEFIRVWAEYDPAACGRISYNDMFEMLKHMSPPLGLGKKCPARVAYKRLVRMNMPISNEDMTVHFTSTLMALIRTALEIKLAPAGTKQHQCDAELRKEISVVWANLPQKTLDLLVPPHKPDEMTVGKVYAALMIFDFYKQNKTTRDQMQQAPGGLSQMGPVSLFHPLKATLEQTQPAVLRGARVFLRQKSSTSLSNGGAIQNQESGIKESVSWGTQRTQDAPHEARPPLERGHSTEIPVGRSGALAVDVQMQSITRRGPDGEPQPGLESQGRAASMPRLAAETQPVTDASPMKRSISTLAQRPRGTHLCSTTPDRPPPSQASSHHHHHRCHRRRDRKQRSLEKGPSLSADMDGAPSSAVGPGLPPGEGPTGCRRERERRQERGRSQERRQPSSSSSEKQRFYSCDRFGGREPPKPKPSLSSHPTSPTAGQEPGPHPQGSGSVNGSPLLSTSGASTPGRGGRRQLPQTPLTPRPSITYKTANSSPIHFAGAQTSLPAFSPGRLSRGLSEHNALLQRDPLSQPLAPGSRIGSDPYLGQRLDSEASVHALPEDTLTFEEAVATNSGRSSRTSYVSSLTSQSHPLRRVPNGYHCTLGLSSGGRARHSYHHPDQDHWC
Chain of N-type calcium channel subunits (α1B, α2δ, and β3a) (P54289 25-1103 partner): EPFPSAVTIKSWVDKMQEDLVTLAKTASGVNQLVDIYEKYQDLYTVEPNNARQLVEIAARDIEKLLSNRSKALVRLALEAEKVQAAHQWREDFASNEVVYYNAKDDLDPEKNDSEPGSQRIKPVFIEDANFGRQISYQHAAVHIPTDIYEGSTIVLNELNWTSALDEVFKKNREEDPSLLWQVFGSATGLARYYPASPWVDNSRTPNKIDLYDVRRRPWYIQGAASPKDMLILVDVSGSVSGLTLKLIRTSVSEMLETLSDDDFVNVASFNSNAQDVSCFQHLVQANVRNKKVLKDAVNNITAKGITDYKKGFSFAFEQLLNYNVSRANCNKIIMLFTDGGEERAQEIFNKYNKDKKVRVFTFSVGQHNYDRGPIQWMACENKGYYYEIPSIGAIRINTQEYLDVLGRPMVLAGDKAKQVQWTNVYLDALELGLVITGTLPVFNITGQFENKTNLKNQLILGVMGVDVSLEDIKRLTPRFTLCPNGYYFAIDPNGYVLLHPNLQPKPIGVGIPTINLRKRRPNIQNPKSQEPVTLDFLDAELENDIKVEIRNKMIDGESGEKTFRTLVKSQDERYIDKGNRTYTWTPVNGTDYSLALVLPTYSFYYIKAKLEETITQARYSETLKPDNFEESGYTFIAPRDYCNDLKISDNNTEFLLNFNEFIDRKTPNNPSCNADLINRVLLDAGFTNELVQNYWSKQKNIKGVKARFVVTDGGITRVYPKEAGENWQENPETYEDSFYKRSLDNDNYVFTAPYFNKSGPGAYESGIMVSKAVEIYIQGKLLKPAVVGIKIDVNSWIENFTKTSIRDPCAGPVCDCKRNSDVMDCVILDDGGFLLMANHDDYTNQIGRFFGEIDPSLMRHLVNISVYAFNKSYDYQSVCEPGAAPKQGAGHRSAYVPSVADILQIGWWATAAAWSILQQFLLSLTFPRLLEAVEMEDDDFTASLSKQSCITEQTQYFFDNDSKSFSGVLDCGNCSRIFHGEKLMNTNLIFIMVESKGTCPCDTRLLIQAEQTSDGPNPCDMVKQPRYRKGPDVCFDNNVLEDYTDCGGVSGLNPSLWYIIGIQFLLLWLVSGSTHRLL
Chain of N-type calcium channel subunits (α1B, α2δ, and β3a) (P54284 whole entry partner): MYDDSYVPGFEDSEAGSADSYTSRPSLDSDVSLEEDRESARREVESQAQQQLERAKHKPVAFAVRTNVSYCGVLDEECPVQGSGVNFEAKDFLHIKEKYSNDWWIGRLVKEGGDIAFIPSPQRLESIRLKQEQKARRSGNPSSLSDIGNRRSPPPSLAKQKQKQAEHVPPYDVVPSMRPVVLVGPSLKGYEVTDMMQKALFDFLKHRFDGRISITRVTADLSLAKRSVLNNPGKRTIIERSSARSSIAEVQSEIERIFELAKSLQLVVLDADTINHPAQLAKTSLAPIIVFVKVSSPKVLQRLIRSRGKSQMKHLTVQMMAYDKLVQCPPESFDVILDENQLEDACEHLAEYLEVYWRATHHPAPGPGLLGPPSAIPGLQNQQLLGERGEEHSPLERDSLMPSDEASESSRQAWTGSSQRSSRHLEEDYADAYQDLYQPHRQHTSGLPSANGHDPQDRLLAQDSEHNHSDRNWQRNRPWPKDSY

How did the pIC50 [1] turn out when CS(=O)(=O)c1cc(C(F)(F)F)ccc1C(=O)N[C@H]1CC[C@@](F)(S(=O)(=O)c2cccc(OC(F)(F)F)c2)CC1 [Compound 254] was run?
Its pIC50 is 6.13.

And the IC50 [2]?
The IC50 was 370 nM.

And the pIC50 [3]?
The pIC50 was 6.59.

What does the source list for Cn1nc(C(F)(F)F)cc1C(=O)N[C@H]1CC[C@@](F)(S(=O)(=O)c2cccc(OC(F)(F)F)c2)CC1 [Compound 255, N-((1S,4S)-4-fluoro-4-(3-(trifluoromethoxy)phenylsulfonyl)cyclohexyl)-1-methyl-3-(trifluoromethyl)-1H-pyrazole-5-carboxamide]?
pIC50 [1]: 5.70; IC50 [2]: 210 nM; pIC50 [3]: 5.48

Which results are given for O=C(N[C@H]1CC[C@@](F)(S(=O)(=O)c2cccc(OC(F)(F)F)c2)CC1)c1ccc(F)c(Cl)c1 [Compound 256, 3-chloro-4-fluoro-N-((1S,4S)-4-fluoro-4-(3-(trifluoromethoxy)phenylsulfonyl)cyclohexyl)benzamide]?
pIC50 [1]: 5.70; IC50 [2]: 150 nM; pIC50 [3]: 5.48

CS(=O)(=O)c1nc(C(F)(F)F)ccc1C(=O)N[C@H]1CC[C@@](F)(S(=O)(=O)c2cccc(OC(F)(F)F)c2)CC1 [Compound 257] was tested. Which pIC50 [1] did it give?
The pIC50 was 5.16.

What about the IC50 [2] of the same compound?
The IC50 was 680 nM.

And the pIC50 [3]?
The pIC50 was 5.04.

CS(=O)(=O)c1cc(C(F)(F)F)cnc1C(=O)N[C@H]1CC[C@@](F)(S(=O)(=O)c2cccc(C(F)(F)F)c2)CC1 [Compound 259, N-((1S,4S)-4-fluoro-4-(3-(trifluoromethyl)phenylsulfonyl)cyclohexyl)-3-(methylsulfonyl)-5-(trifluoromethyl)picolinamide] was tested. Which pIC50 [1] did it give?
Its pIC50 is 5.21.

What about the IC50 [2] of the same compound?
The IC50 was 500 nM.

And the pIC50 [3]?
Its pIC50 is 5.02.

Which results are given for CS(=O)(=O)c1nc(C(F)(F)F)ccc1C(=O)N[C@H]1CC[C@@](F)(S(=O)(=O)c2cccc(C(F)(F)F)c2)CC1 [Compound 260]?
pIC50 [1]: 5.64; IC50 [2]: 1080 nM; pIC50 [3]: 5.44

What does the source list for O=C(N[C@H]1CC[C@@](F)(S(=O)(=O)c2cccc(C(F)(F)F)c2)CC1)c1cnc(C(F)(F)F)nc1 [Compound 261, N-((1S,4S)-4-fluoro-4-(3-(trifluoromethyl)phenylsulfonyl)cyclohexyl)-2-(trifluoromethyl)pyrimidine-5-carboxamide]?
pIC50 [1]: < 5.00; IC50 [2]: 1720 nM; pIC50 [3]: 5.14

What does the source list for CS(=O)(=O)c1cc(Cl)ccc1C(=O)N[C@H]1CC[C@@](F)(S(=O)(=O)c2cccc(C(F)(F)F)c2)CC1 [Compound 262, 4-chloro-N-((1S,4S)-4-fluoro-4-(3-(trifluoromethyl)phenylsulfonyl)cyclohexyl)-2-(methylsulfonyl)benzamide]?
pIC50 [1]: 5.54; IC50 [2]: 250 nM; pIC50 [3]: 5.83

CS(=O)(=O)c1ccc(C(=O)N[C@H]2CC[C@@](F)(S(=O)(=O)c3cccc(C(F)(F)F)c3)CC2)c(Cl)c1 [Compound 263, 2-chloro-N-((1S,4S)-4-fluoro-4-(3-(trifluoromethyl)phenylsulfonyl)cyclohexyl)-4-(methylsulfonyl)benzamide] was tested. Which pIC50 [1] did it give?
The pIC50 was 5.65.

And the IC50 [2]?
Its IC50 is 2510 nM.

And the pIC50 [3]?
The pIC50 was 5.87.

With O=C(N[C@H]1CC[C@@](F)(S(=O)(=O)c2cccc(C(F)(F)F)c2)CC1)c1cn2cc(C(F)(F)F)ccc2n1 [Compound 264, N-((1S,4S)-4-fluoro-4-(3-(trifluoromethyl)phenylsulfonyl)cyclohexyl)-6-(trifluoromethyl)imidazo[1,2-a]pyridine-2-carboxamide] as the compound, how does the pIC50 [1] read?
The pIC50 was 5.35.

What about the IC50 [2] of the same compound?
The IC50 was 470 nM.

And the pIC50 [3]?
The pIC50 was under 5.00.

How did the pIC50 [1] turn out when COc1cc(Cl)ccc1C(=O)N[C@H]1CC[C@@](F)(S(=O)(=O)c2cccc(C(F)(F)F)c2)CC1 [Compound 265, 4-chloro-N-((1S,4S)-4-fluoro-4-(3-(trifluoromethyl)phenylsulfonyl)cyclohexyl)-2-methoxybenzamide] was run?
Its pIC50 is under 5.00.

What about the IC50 [2] of the same compound?
The IC50 was 260 nM.

And the pIC50 [3]?
The pIC50 was under 5.00.

Which results are given for O=C(N[C@H]1CC[C@@](F)(S(=O)(=O)c2cccc(C(F)(F)F)c2)CC1)c1cc2cnccc2nc1C(F)(F)F [Compound 266, N-((1S,4S)-4-fluoro-4-(3-(trifluoromethyl)phenylsulfonyl)cyclohexyl)-2-(trifluoromethyl)-1,6-naphthyridine-3-carbosamide]?
pIC50 [1]: 5.44; IC50 [2]: 2440 nM; pIC50 [3]: 5.25

With O=C(N[C@H]1CC[C@@](F)(S(=O)(=O)c2cccc(C(F)(F)F)c2)CC1)c1cnccc1C(F)(F)F [Compound 267] as the compound, how does the pIC50 [1] read?
The pIC50 was 5.58.

And the IC50 [2]?
The IC50 was 790 nM.

What about the pIC50 [3] of the same compound?
Its pIC50 is 6.31.

O=C(N[C@H]1CC[C@@](F)(S(=O)(=O)c2cccc(C(F)(F)F)c2)CC1)c1ccnc(C(F)(F)F)n1 [Compound 268, N-((1S,4S)-4-fluoro-4-(3-(trifluoromethyl)phenylsulfonyl)cyclohexyl)-2-(trifluoromethyl)pyrimidine-4-carboxamide] was tested. Which pIC50 [1] did it give?
Its pIC50 is under 5.00.

What about the IC50 [2] of the same compound?
Its IC50 is 30 nM.

And the pIC50 [3]?
The pIC50 was 5.72.

How did the pIC50 [1] turn out when O=C(N[C@H]1CC[C@@](F)(S(=O)(=O)c2cccc(C(F)(F)F)c2)CC1)c1ccc(Cl)c(Cl)c1 [Compound 269, 3,4-dichloro-N-((1S,4S)-4-fluoro-4-(3-(trifluoromethyl)phenylsulfonyl)cyclohexyl)benzamide] was run?
The pIC50 was under 5.00.

What about the IC50 [2] of the same compound?
Its IC50 is 190 nM.

What about the pIC50 [3] of the same compound?
The pIC50 was under 5.00.

O=C(N[C@H]1CC[C@@](F)(S(=O)(=O)c2cccc(C(F)(F)F)c2)CC1)c1ccc(Cl)cc1Cl [Compound 270, 2,4-dichloro-N-((1S,4S)-4-fluoro-4-(3-(trifluoromethyl)phenylsulfonyl)cyclohexyl) benzamide] was tested. Which pIC50 [1] did it give?
Its pIC50 is 5.60.

What about the IC50 [2] of the same compound?
The IC50 was 210 nM.

What about the pIC50 [3] of the same compound?
Its pIC50 is 5.45.

With CS(=O)(=O)c1ccc(C(=O)N[C@H]2CC[C@@](F)(S(=O)(=O)c3cccc(C(F)(F)F)c3)CC2)cc1 [Compound 271, N-((1S,4S)-4-fluoro-4-(3-(trifluoromethyl)phenylsulfonyl)cyclohexyl)-4-(methylsulfonyl)benzamide] as the compound, how does the pIC50 [1] read?
Its pIC50 is 5.58.

What about the IC50 [2] of the same compound?
Its IC50 is 8160 nM.

What about the pIC50 [3] of the same compound?
Its pIC50 is 5.78.

How did the pIC50 [1] turn out when CS(=O)(=O)c1cc(C(=O)N[C@H]2CC[C@@](F)(S(=O)(=O)c3cccc(C(F)(F)F)c3)CC2)cc(C(F)(F)F)n1 [Compound 273, N-((1R,4R)-4-fluoro-4-(3-(trifluoromethyl)phenylsulfonyl)cyclohexyl)-2-(methylsulfonyl)-6-(trifluoromethyl)isonicotinamide] was run?
Its pIC50 is under 5.00.

What about the IC50 [2] of the same compound?
Its IC50 is 430 nM.

And the pIC50 [3]?
The pIC50 was under 5.00.

Which results are given for O=C(CCC(F)(F)F)N[C@H]1CC[C@@](F)(S(=O)(=O)c2cccc(C(F)(F)F)c2)CC1 [Compound 274, 4,4,4-trifluoro-N-((1S,4S)-4-fluoro-4-(3-(trifluoromethyl)phenylsulfonyl)cyclohexyl)butanamide]?
pIC50 [1]: 5.60; IC50 [2]: 530 nM; pIC50 [3]: 5.98

Which results are given for O=C(N[C@H]1CC[C@@](F)(S(=O)(=O)c2cccc(C(F)(F)F)c2)CC1)C1(C(F)(F)F)CC1 [Compound 275, N-((1S,4S)-4-fluoro-4-(3-(trifluoromethyl)phenylsulfonyl)cyclohexyl)-1-(trifluoromethyl) cyclopropaneCarboxamide]?
pIC50 [1]: < 5.00; IC50 [2]: 700 nM; pIC50 [3]: < 5.00

Which results are given for COc1ccc(C2(C(=O)N[C@H]3CC[C@@](F)(S(=O)(=O)c4cccc(C(F)(F)F)c4)CC3)CC2)cc1 [Compound 276, N-((1S,4S)-4-fluoro-4-(3-(trifluoromethyl)phenylsulfonyl)cyclohexyl)-1-(4-methoxyphenyl) cyclopropanecarboxamide]?
pIC50 [1]: < 5.00; IC50 [2]: 380 nM; pIC50 [3]: 5.64

How did the pIC50 [1] turn out when O=C(N[C@H]1CC[C@@](F)(S(=O)(=O)c2cccc(C(F)(F)F)c2)CC1)C1CCCC1 [Compound 277, N-((1S,4S)-4-fluoro-4-(3-(trifluoromethyl)phenylsulfonyl)cyclohexyl) cyclopentanecarboxamide] was run?
Its pIC50 is 5.61.

What about the IC50 [2] of the same compound?
Its IC50 is 470 nM.

What about the pIC50 [3] of the same compound?
The pIC50 was 6.27.

How did the pIC50 [1] turn out when CC(C)(C)CC(=O)N[C@H]1CC[C@@](F)(S(=O)(=O)c2cccc(C(F)(F)F)c2)CC1 [Compound 278, N-((1S,4S)-4-fluoro-4-(3-(trifluoromethyl)phenylsulfonyl)cyclohexyl)-3,3-dimethylbutanamide] was run?
Its pIC50 is 5.61.

What about the IC50 [2] of the same compound?
Its IC50 is 280 nM.

And the pIC50 [3]?
Its pIC50 is 5.65.

With O=C(N[C@H]1CC[C@@](F)(S(=O)(=O)c2cccc(C(F)(F)F)c2)CC1)C1Cc2ccccc2N1 (stereo partly drawn) [Compound 279, N-((1S,4S)-4-fluoro-4-(3-(trifluoromethyl)phenylsulfonyl)cyclohexyl) indoline-2-carboxamide] as the compound, how does the pIC50 [1] read?
Its pIC50 is under 5.00.

What about the IC50 [2] of the same compound?
Its IC50 is 450 nM.

And the pIC50 [3]?
The pIC50 was 5.68.

CC(C)S(=O)(=O)c1cc(C(F)(F)F)cnc1C(=O)N[C@H]1CC[C@@](F)(S(=O)(=O)c2cccc(C(F)(F)F)c2)CC1 [Compound 281, N-((1S,4S)-4-fluoro-4-(3-(trifluoromethyl)phenylsulfonyl)cyclohexyl)-3-(isopropylsulfonyl)-5-(trifluoromethyl)picolinamide] was tested. Which pIC50 [1] did it give?
Its pIC50 is 5.07.

And the IC50 [2]?
Its IC50 is 30 nM.

And the pIC50 [3]?
Its pIC50 is 5.84.

With O=C(N[C@H]1CC[C@@](F)(S(=O)(=O)c2cccc(C(F)(F)F)c2)CC1)[C@@H]1C[C@@H](c2ccccc2)CN1 [Compound 285, (2S,4S)-N-((1S,4R)-4-fluoro-4-(3-(trifluoromethyl)phenylsulfonyl)cyclohexyl)-4-phenylpyrrolidine-2-carboxamide] as the compound, how does the pIC50 [1] read?
The pIC50 was under 5.00.

What about the IC50 [2] of the same compound?
Its IC50 is 360 nM.

What about the pIC50 [3] of the same compound?
Its pIC50 is 5.89.

How did the pIC50 [1] turn out when O=C(N[C@H]1CC[C@@](F)(S(=O)(=O)c2cccc(C(F)(F)F)c2)CC1)[C@@H]1C[C@H](c2ccccc2)CN1 [Compound 286, (2S,4R)-N-((1S,4R)-4-fluoro-4-(3-(trifluoromethyl)phenylsulfonyl)cyclohexyl)-4-phenylpyrrolidine-2-carboxamide] was run?
Its pIC50 is 5.50.

What about the IC50 [2] of the same compound?
Its IC50 is 390 nM.

What about the pIC50 [3] of the same compound?
The pIC50 was 5.81.
